Patent US9795590B2, “Anti-inflammatory agents as virostatic compounds” (Panoptes Pharma GmbH, priority 2014, dated 2017)

Legend:
[1] = target: DHODH (human) (Homo sapiens, UniProt Q02127); assay: DHODH in vitro enzymatic activity assay (human); type: biochemical
Experimental: (§1) Pharmacological parameters of compound 1 (Table 2) were determined by standard procedures, i.e. DHODH and kinase activity assays were performed according to Davis et al., (1996. The immunosuppressive metabolite of leflunomide is a potent inhibitor of human dihydroorotate dehydrogenase.

[2] = test system: HAdV D19; assay: virus yield assay HAdV D19 in A549; type: cell-based, human adenovirus; settings: MOI 20, supernatant transfer 4 d post-infection, n=4
Experimental: (§2) A549 cells were infected at MOI 20 and continuously treated with the given concentrations of compound 1. Virus-containing supernatants were transferred to uninfected cells at 4 d^1, 6 d^2 or 2 d^3 post-infection, respectively, and used for quantitation of infectious virus. Percentages of virus-positive cells per total cells were determined on the basis of indirect immunofluorescence staining (monoclonal anti-adenovirus hexon protein antibody; Abcam B025-AD51/ab7428) by microscopic countings: n=4 for C02, C05, D19, D37; n=3 for B03k, E04k; n=1 for A31, B03, D08, E04.

[3] = test system: 293T (T81GFP); assay: drug-induced cytotoxicity, microscopic evaluation, 293T (T81GFP); type: cell-based; settings: EBV experiment
[4] = test system: VZV, varicella zoster virus, strain Oka; assay: antiviral assay VZV in primary human fibroblasts; type: cell-based; settings: Human alphaherpesvirus 3, Fibroblast, read-out: IC50 of virus replication VZV
Experimental: (§3) Antiviral assays were performed as described in the literature (Marschall, M. et al., 2000. Antimicrob. Agents Chemother. 44, 1588-1597; Marschall M. et al., 2012. Antimicrob. Agents Chemother. 56, 1135-1137; Kindsmüller et al., 2009. J. Virol. 83, 9045-9056; Rechter et al., 2006. Antiviral Res. 72, 197-206).

[5] = test system: HAdV D37; assay: virus yield assay HAdV D37 in A549; type: cell-based, human adenovirus; settings: MOI 20, supernatant transfer 6 d post-infection, n=4
Experimental: as §2

[6] = test system: HHV-6, human herpesvirus type 6A, strain U1102; assay: antiviral assay HHV-6 in J-JHAN; type: cell-based; settings: n = 8, read-out: IC50 of virus replication HHV-6
Experimental: as §3

[7] = test system: HAdV E04; assay: virus yield assay HAdV E04 in A549; type: cell-based, human adenovirus; settings: MOI 20, supernatant transfer 6 d post-infection, n=1
Experimental: as §2

[8] = test system: HAdV A31; assay: virus yield assay HAdV A31 in A549; type: cell-based, human adenovirus; settings: MOI 20, supernatant transfer 4 d post-infection, n=1
Experimental: as §2

[9] = target: AKT-1/-2/-3; assay: kinase activity assay AKT; type: biochemical; settings: read-out: Inhibitory activity in vitro (IC50) AKT-1/-2/-3
Experimental: as §1

[10] = test system: HAdV E04k; assay: virus yield assay HAdV E04k (clinical isolate) in A549; type: cell-based, human adenovirus; settings: MOI 20, supernatant transfer 6 d post-infection, n=3
Experimental: as §2

[11] = test system: Human adenovirus type 2 (HAdV-2); assay: plaque reduction assay HAdV-2 in A549; type: cell-based; settings: Human mastadenovirus C, A549, n = 8, read-out: IC50 antiviral activity against HAdV-2
Experimental: as §3

[12] = test system: HAdV C05; assay: virus yield assay HAdV C05 in A549; type: cell-based, human adenovirus; settings: MOI 20, supernatant transfer 2 d post-infection, n=4
Experimental: as §2

[13] = test system: HAdV C02; assay: virus yield assay HAdV C02 in A549; type: cell-based, human adenovirus; settings: MOI 20, supernatant transfer 2 d post-infection, n=4
Experimental: as §2

[14] = test system: HSV-2, herpes simplex virus type 2, isolate 01-6332; assay: antiviral assay HSV-2 in Vero; type: cell-based; settings: Human alphaherpesvirus 2, n = 4, read-out: IC50 of virus replication HSV-2
Experimental: as §3

[15] = test system: Vaccina (vaccine virus, strain IHD-5); assay: antiviral assay vaccinia virus in primary human fibroblasts; type: cell-based; settings: Orthopoxvirus vaccinia, Fibroblast, read-out: IC50 of virus replication Vaccina
Experimental: as §3

[16] = test system: A549; assay: drug-induced cytotoxicity, microscopic evaluation, A549; type: cell-based; settings: HAdV-2 experiment, A549, 1-10 μM
[17] = target: PI3K-α/-β/-γ/-δ; assay: kinase activity assay PI3K; type: biochemical; settings: read-out: Inhibitory activity in vitro (IC50) PI3K-α/-β/-γ/-δ
Experimental: as §1

[18] = target: DHODH (mouse) (Mus musculus, UniProt O35435); assay: DHODH in vitro enzymatic activity assay (mouse); type: biochemical; settings: read-out: Inhibitory activity in vitro (IC50) DHODH (mouse)
DHODH (mouse), sequence (O35435 whole entry): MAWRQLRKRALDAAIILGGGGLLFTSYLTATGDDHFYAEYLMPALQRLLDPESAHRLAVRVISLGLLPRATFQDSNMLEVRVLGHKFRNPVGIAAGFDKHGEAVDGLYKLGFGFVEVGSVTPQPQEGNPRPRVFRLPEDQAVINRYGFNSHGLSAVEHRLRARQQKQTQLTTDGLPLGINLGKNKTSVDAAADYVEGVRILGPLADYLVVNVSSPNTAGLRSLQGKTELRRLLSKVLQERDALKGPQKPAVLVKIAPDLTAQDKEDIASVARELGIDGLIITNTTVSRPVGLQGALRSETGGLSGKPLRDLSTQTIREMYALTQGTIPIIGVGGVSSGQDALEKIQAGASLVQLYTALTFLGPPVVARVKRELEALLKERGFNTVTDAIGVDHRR

[19] = test system: primary human fibroblasts; assay: drug-induced cytotoxicity, microscopic evaluation, primary human fibroblasts; type: cell-based
[20] = target: JAK-1/-2/-3; assay: kinase activity assay JAK; type: biochemical; settings: read-out: Inhibitory activity in vitro (IC50) JAK-1/-2/-3
Experimental: as §1

[21] = test system: HAdV B03; assay: virus yield assay HAdV B03 in A549; type: cell-based, human adenovirus; settings: MOI 20, supernatant transfer 6 d post-infection, n=1
Experimental: as §2

[22] = test system: EBV, Epstein-Barr virus, strain B95-8; assay: antiviral assay EBV in 293T (T81GFP); type: cell-based; settings: human gammaherpesvirus 4, n = 4, read-out: IC50 of virus replication EBV
Experimental: as §3

[23] = test system: HAdV D08; assay: virus yield assay HAdV D08 in A549; type: cell-based, human adenovirus; settings: MOI 20, supernatant transfer 4 d post-infection, n=1
Experimental: as §2

[24] = test system: Vero; assay: drug-induced cytotoxicity, microscopic evaluation, Vero; type: cell-based
[25] = test system: HSV-1, herpes simplex virus type 1, strain 166v VP22-GFP; assay: GFP-based reporter assay HSV-1 in Vero; type: cell-based; settings: Human alphaherpesvirus 1, Vero, read-out: IC50 of virus replication HSV-1
Experimental: as §3

[26] = test system: HAdV B03k; assay: virus yield assay HAdV B03k (clinical isolate) in A549; type: cell-based, human adenovirus; settings: MOI 20, supernatant transfer 6 d post-infection, n=3
Experimental: as §2

[27] = test system: J-JHAN; assay: drug-induced cytotoxicity, microscopic evaluation, J-JHAN; type: cell-based; settings: HHV-6 experiment

DHODH (human), sequence (Q02127 whole entry): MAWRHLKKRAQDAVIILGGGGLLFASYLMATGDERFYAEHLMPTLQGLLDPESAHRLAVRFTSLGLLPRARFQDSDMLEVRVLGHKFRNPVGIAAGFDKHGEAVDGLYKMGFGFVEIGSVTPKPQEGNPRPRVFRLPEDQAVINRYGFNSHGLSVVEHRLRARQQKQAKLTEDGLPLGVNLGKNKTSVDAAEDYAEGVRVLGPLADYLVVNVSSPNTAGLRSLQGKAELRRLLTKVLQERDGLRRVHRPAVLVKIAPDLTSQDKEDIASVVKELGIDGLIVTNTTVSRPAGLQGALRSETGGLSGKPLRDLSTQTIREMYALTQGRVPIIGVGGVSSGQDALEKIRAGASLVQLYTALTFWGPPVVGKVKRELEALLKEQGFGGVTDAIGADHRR

Nc1nc2c(ncn2COC(CO)CO)c(=O)[nH]1 [GCV, reference compound]
DHODH activity remaining ([1]; at 10 μM, duplicate testings): 100%

O=C(Nc1c(F)c(F)c(-c2cccc(OC(F)(F)F)c2)c(F)c1F)c1ccsc1C(=O)O [compound 1, 3-(2,3,5,6-tetrafluoro-3′-trifluoromethoxy-biphenyl-4-ylcarbamoyl)-thiophene-2-carboxylic acid]
virus-positive cells (0 μM = 100), HAdV D19 ([2]; 0.37 μM): 81% | virus-positive cells (0 μM = 100), HAdV D19 ([2]; 1.11 μM): 4% | Cytotoxicity [1-10 μM] [3]: none | IC50 [4]: 3.55 ± 0.26 µM | virus-positive cells (0 μM = 100), HAdV D37 ([5]; 0.37 μM): 96% | virus-positive cells (0 μM = 100), HAdV D37 ([5]; 1.11 μM): 3% | IC50 [6]: 1.55 ± 0.31 µM | virus-positive cells (0 μM = 100), HAdV E04 ([7]; 0.37 μM): 128% | virus-positive cells (0 μM = 100), HAdV E04 ([7]; 1.11 μM): 23% | virus-positive cells (0 μM = 100), HAdV A31 ([8]; 0.37 μM): 72% | virus-positive cells (0 μM = 100), HAdV A31 ([8]; 1.11 μM): 3% | IC50 [9]: > 15 µM | virus-positive cells (0 μM = 100), HAdV E04k ([10]; 0.37 μM): 115% | virus-positive cells (0 μM = 100), HAdV E04k ([10]; 1.11 μM): 9% | IC50 [11]: 0.56 ± 0.02 µM | virus-positive cells (0 μM = 100), HAdV C05 ([12]; 0.37 μM): 82% | virus-positive cells (0 μM = 100), HAdV C05 ([12]; 1.11 μM): 6% | IC50 ([1]; purified human DHODH, read-out: Inhibitory activity in vitro (IC50) DHODH (human)): 0.0015 ± 0.0002 µM | virus-positive cells (0 μM = 100), HAdV C02 ([13]; 0.37 μM): 100% | virus-positive cells (0 μM = 100), HAdV C02 ([13]; 1.11 μM): 9% | IC50 [14]: > 10 µM | IC50 [15]: 9.85 ± 6.61 µM | Cytotoxicity [1-10 μM] [16]: None | Cytotoxicity [1-10 μM] ([16]; listed as Compound 1): none | IC50 [17]: > 1 µM | IC50 [18]: 0.0032 ± 0.0008 µM | Cytotoxicity [1-10 μM] ([19]; VZV experiment): none | Cytotoxicity [1-10 μM] ([19]; Vaccina experiment): none | IC50 [20]: > 10 µM | virus-positive cells (0 μM = 100), HAdV B03 ([21]; 0.37 μM): 127% | virus-positive cells (0 μM = 100), HAdV B03 ([21]; 1.11 μM): 29% | IC50 [22]: > 10 µM | virus-positive cells (0 μM = 100), HAdV D08 ([23]; 0.37 μM): 6% | virus-positive cells (0 μM = 100), HAdV D08 ([23]; 1.11 μM): 0% | Cytotoxicity [1-10 μM] ([24]; HSV-1 experiment): none | Cytotoxicity [1-10 μM] ([24]; HSV-2 experiment): none | IC50 [25]: > 10 µM | virus-positive cells (0 μM = 100), HAdV B03k ([26]; 0.37 μM): 70% | virus-positive cells (0 μM = 100), HAdV B03k ([26]; 1.11 μM): 11% | Cytotoxicity [1-10 μM] [27]: none
